# In patent publication US11071731B2, “Allosteric modulators of the mu opioid receptor” (Chiromics, LLC, priority 2017, dated 2021):
# How the values were obtained:
# [1] = molecular target: T1, mu opioid receptor (MOR) (Homo sapiens, UniProt P35372); assay: PathHunter β-arrestin recruitment assay, PAM mode with EC20 endomorphin-1; assay type: cell-based
# Procedure: The effects of MOR PAMs and MOR SAMs on receptor activity were assayed using the PathHunter enzyme complementation assay technology (DiscoveRx, CA). A description of the technology employed is as follows.
# Beta-Arrestin Pathway: The PathHunter β-arrestin assay monitors the activation of a GPCR in a homogenous, non-imaging assay format using a technology developed by DiscoveRx called Enzyme Fragment Complementation (EFC) with beta-galactosidase (β-Gal) as the functional reporter. […] EA is fused to β-Arrestin and ED is fused to the GPCR of interest. When the GPCR is activated and β-arrestin is recruited to the receptor, ED and EA complementation occurs, restoring β-gal activity, which is measured using chemiluminescent PathHunter Detection Reagents.
# In this manner an EC50 for each test compound, and percent maximal response for each test compound, were determined for both the β-arrestin and cAMP pathways. Though the pharmacological effects of a given signal bias can be hypothesized (Raehal et al. (2011) Pharmacol. Rev. 63:1001-1019), it is not possible to know with certainty which bias ratio will be most advantageous in a clinical setting. […] Kenakin 2015a, supra. The information associated with the compounds detailed herein is the first large data set available for the prediction of ligand bias for an MOR PAM.
# [2] = molecular target: T1, mu opioid receptor (MOR); assay: Hit Hunter cAMP signaling assay (adenylyl cyclase inhibition), PAM mode with EC20 endomorphin-1; assay type: cell-based
# [3] = maximal response for β-arrestin recruitment
# [4] = β-arrestin recruitment, read-out: β-arr. EC50
# [5] = adenylyl cyclase inhibition, read-out: cAMP EC50
# [6] = maximal response for adenylyl cyclase inhibition
# [7] = cAMP EC50, adenylyl cyclase inhibition
# [8] = β-arrestin recruitment, activity switching by MOR PAMs
# [9] = β-arrestin recruitment, activity switching by MOR PAMs, read-out: β-arrestin EC50
# [10] = adenylyl cyclase inhibition, activity switching by MOR PAMs
# [11] = adenylyl cyclase inhibition, activity switching by MOR PAMs, read-out: cAMP EC50
# [12] = maximal response, β-arrestin recruitment
# [13] = maximal response, adenylyl cyclase inhibition
# T1 sequence (P35372 whole entry): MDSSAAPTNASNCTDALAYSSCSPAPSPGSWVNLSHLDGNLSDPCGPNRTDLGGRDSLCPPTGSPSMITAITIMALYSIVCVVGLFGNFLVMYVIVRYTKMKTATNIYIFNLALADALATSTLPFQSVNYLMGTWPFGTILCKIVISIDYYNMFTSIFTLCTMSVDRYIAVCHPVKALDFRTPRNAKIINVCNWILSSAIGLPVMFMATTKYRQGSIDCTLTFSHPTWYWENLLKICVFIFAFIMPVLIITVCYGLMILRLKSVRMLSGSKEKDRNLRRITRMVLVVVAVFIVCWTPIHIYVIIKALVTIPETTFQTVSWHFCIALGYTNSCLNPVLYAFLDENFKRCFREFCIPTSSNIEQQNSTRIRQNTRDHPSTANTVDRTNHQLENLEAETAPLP
SMILES,"β-arr Max. Resp. [1, 3]","EC50 [1, 4] [µM]","EC50 [2, 5] [µM]","cAMP Max. Resp. [2, 6]","EC50 [2, 7] [µM]","β-arrestin Max Response [1, 8]","EC50 [1, 9] [µM]","cAMP Max Resp. [2, 10]","EC50 [2, 11] [µM]","β-arr Max. Resp. [1, 12]","cAMP Max. Resp. [2, 13]"
O=S(=O)(c1ccc(Cl)cc1)N1CCOCC1c1ccc(F)c(Br)c1 (racemic) [Compound 185],F (F represents a maximal response of > 60%),0.7 to 2.1,> 2.1,D (D represents a maximal response of < 40%),,,,,,,
COc1ccc(C2N(S(=O)(=O)c3ccc(Cl)cc3)CCC2(F)F)cc1Br (racemic) [Compound 85],D (D represents a maximal response of < 40%),> 2.1,> 2.1,D (D represents a maximal response of < 40%),,,,,,,
"[2H]C1(c2cccc(C(F)(F)F)c2)C(F)CCCN1c1nc(Cl)ncc1F (single isomer, unassigned) [compound 209]",F (F represents a maximal response of > 60%),0.7 to 2.1,,D (D represents a maximal response of < 40%),,,,,,,
CCC1CCCN(c2nc(Cl)ncc2F)C1c1ccc(OC)c(Br)c1 (stereo not shown) [compound 248],F (F represents a maximal response of > 60%),> 2.1,> 2.1,E (E represents a maximal response of 40-60%),,,,,,,
Fc1cnc(Cl)nc1N1CCCCC1c1cc(C(F)(F)F)c2[nH]cnc2c1 (stereo not shown) [compound 417],D (D represents a maximal response of < 40%),< 0.7,,D (D represents a maximal response of < 40%),< 0.7,,,,,,
Fc1c(N2CCCCC2c2cccc(C(F)(F)F)c2)ccnc1Cl (stereo not shown) [compound 402],D (D represents a maximal response of < 40%),< 0.7,,D (D represents a maximal response of < 40%),< 0.7,,,,,,
CC1CCN(S(=O)(=O)c2ccc(Cl)cc2)C1c1ccc2c(c1)CCO2 (mixture of isomers) [Compound 91],F (F represents a maximal response of > 60%),> 2.1,> 2.1,D (D represents a maximal response of < 40%),,,,,,,
O=S1(=O)CCN(c2nc(Cl)ncc2F)C(c2cc(F)cc(C(F)(F)F)c2)C1 (racemic) [Compound 303],D (D represents a maximal response of < 40%),> 2.1,> 2.1,E (E represents a maximal response of 40-60%),,,,,,,
O=S(=O)(c1cc(F)ccc1F)N1CCCCC1c1cccc(C(F)(F)F)c1 (stereo not shown) [Compound 26],F (F represents a maximal response of > 60%),> 2.1,> 2.1,D (D represents a maximal response of < 40%),,,,,,,
O=S(=O)(c1ccc(Cl)cc1)N1CCCCC1c1nccc(C(F)(F)F)n1 (racemic) [compound 73],F (F represents a maximal response of > 60%),> 2.1,> 2.1,D (D represents a maximal response of < 40%),,F (F represents a maximal response of >60%),> 2.1,D (D represents a maximal response of < 40%),> 2.1,,
Fc1cc(C2COCCN2Cc2cc(Cl)ccc2F)cc(C(F)(F)F)c1 (racemic) [Compound 195],F (F represents a maximal response of > 60%),0.7 to 2.1,> 2.1,D (D represents a maximal response of < 40%),,,,,,,
Fc1ccc(C2CCCCN2c2ccc(C(F)(F)F)cc2)cc1Cl (stereo not shown) [compound 453],,> 2.1,,,> 2.1,,,,,D (D represents a maximal response of < 40%),D (D represents a maximal response of < 40%)
COc1ccc(C2CCCCN2Cc2cccc(Cl)c2F)cc1Br (stereo not shown) [compound 245],D (D represents a maximal response of < 40%),> 2.1,,D (D represents a maximal response of < 40%),> 2.1,,,,,,
[O-][S+]1CCN(c2nc(Cl)ncc2F)C(c2cc(F)cc(C(F)(F)F)c2)C1 (mixture of isomers) [Compound 302],E (E represents a maximal response of 40-60%),> 2.1,> 2.1,D (D represents a maximal response of < 40%),,,,,,,
Cc1coc(C2CCCCN2c2nc(Cl)ncc2F)n1 (stereo not shown) [compound 366],D (D represents a maximal response of < 40%),< 0.7,,D (D represents a maximal response of < 40%),< 0.7,,,,,,
O=S(=O)(c1ccc(Cl)cc1)N1CCCCC1c1cc(C(F)(F)F)ccn1 (racemic) [compound 79],F (F represents a maximal response of > 60%),> 2.1,> 2.1,D (D represents a maximal response of < 40%),,F (F represents a maximal response of >60%),> 2.1,D (D represents a maximal response of < 40%),> 2.1,,
CC1CCN(S(=O)(=O)c2ccc(Cl)cc2)C1c1cccc(C(F)(F)F)c1 (mixture of isomers) [Compound 89],F (F represents a maximal response of > 60%),0.7 to 2.1,> 2.1,D (D represents a maximal response of < 40%),,,,,,,
O=C1CCN(c2nc(Cl)ncc2F)C(c2cccc(C(F)(F)F)c2)C1 (stereo not shown) [compound 239],E (E represents a maximal response of 40-60%),> 2.1,,D (D represents a maximal response of < 40%),> 2.1,,,,,,
Fc1ccc(C2CCCCN2c2cccc(Cl)c2)cc1Cl (stereo not shown) [compound 443],,> 2.1,,,> 2.1,,,,,F (F represents a maximal response of > 60%),D (D represents a maximal response of < 40%)
"Fc1ccc(C2CCCCN2c2nc(Cl)ncc2F)cc1Cl (single isomer, unassigned) [compound 11]",F (F represents a maximal response of > 60%),< 0.7,,E (E represents a maximal response of 40-60%),,,,,,,
Cc1ccc(C2CCCCN2c2nc(Cl)ncc2F)cc1Br (stereo not shown) [compound 281],F (F represents a maximal response of > 60%),0.7 to 2.1,,D (D represents a maximal response of < 40%),< 0.7,,,,,,
Fc1ccc(Cl)cc1CN1CCCCC1c1cccc(OC(F)(F)F)n1 (stereo not shown) [compound 169],F (F represents a maximal response of > 60%),< 0.7,,F (F represents a maximal response of > 60%),< 0.7,,,,,,
Cc1cncc(C2CCCCN2c2nc(Cl)ncc2F)c1 (stereo not shown) [compound 330],D (D represents a maximal response of < 40%),< 0.7,,D (D represents a maximal response of < 40%),< 0.7,,,,,,
OC1CCN(c2nc(Cl)ncc2F)C(c2cc(F)cc(C(F)(F)F)c2)C1 (stereo not shown) [compound 201],F (F represents a maximal response of > 60%),> 2.1,,F (F represents a maximal response of > 60%),> 2.1,,,,,,
[2H]C1(c2cccc(C(F)(F)F)c2)C(F)CCCN1Cc1cccc(Br)c1 (stereo not shown) [compound 206],F (F represents a maximal response of > 60%),0.7 to 2.1,,E (E represents a maximal response of 40-60%),0.7 to 2.1,,,,,,
